{"source": "patent US3977944A", "about": "“Enzyme-kinetic determination of the concentration of a substrate” (Eppendorf Geratebau Netheler & Hinz GmbH, priority 1973, dated 1976)", "key": {"[1]": {"target": "uricase obtained from swine liver (Sus scrofa, UniProt P16164)", "conditions": "read-out: Michaelis constant of uricase, Tiffany et al., Anal. Chem. 45, 1716-23 (1973); cited from earlier work"}, "uricase [2]": {"target": "T1, uricase (Sus scrofa, UniProt P16164)", "T1 sequence (P16164 2-304 limits assumed)": "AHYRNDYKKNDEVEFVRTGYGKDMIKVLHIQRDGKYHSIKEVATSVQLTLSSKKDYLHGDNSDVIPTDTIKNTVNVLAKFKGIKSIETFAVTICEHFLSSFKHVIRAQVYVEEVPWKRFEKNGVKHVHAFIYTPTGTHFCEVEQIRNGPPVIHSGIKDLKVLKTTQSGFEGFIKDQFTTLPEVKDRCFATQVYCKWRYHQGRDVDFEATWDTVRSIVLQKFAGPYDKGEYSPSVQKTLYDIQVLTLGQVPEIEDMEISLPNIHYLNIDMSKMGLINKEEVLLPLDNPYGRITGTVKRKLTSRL", "test": "Inhibition of Uricase, Example 6", "assay_type": "biochemical", "excerpt": "(§1) The following test mixture was used:\n96 mmoles borate buffer pH = 9.5\n114 - 7.6 μmoles uric acid"}, "glucose dehydrogenase [3]": {"target": "T2, glucose dehydrogenase (Priestia megaterium, UniProt P07999)", "T2 sequence (P07999 whole entry)": "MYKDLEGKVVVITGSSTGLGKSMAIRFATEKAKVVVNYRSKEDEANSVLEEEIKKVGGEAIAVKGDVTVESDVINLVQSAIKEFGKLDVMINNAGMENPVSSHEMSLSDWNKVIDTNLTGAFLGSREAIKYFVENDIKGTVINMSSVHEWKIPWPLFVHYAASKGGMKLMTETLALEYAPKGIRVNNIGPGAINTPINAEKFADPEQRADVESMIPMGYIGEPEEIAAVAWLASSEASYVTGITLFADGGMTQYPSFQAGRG", "conditions": "Lineweaver-Burk diagram, FIG. 1; 330 and 500 mmoles KSCN per liter of test solution", "description": "The reaction was started by the admixture of 20 μl of 200 mmoles/l NAD^+, and recording was begun 10 seconds later: paper feed 5 cm/min, spread 20 cm for E = 0 - 1.\nFor the determination of the angle α with the axis of time the virtually linear initial area of the recording was evaluated; for the determination of the type of inhibitor, the reciprocals of tangent α (identical with the initial rate, for practical purposes) were plotted as ordinates and the reciprocals of the millimolar glucose concentrations used in the test were plotted as abscissae (Lineweaver-Burk diagram).\n20 μl of specimen was incubated in the cell at 25°C with 500 μl of stabilized buffer-enzyme-inhibitor mixture and the reaction was started by the admixture of 20 μl NAD^+ (150 mg/ml H2 O). 20 seconds after the start of the reaction, recording was performed at a paper feed of 5 cm/min at Hg 366 nm, and the layer thickness 1.00 cm, and the angle α was determined 20 seconds after the start of the reaction in each case."}, "glucose dehydrogenase [4]": {"target": "T2, glucose dehydrogenase", "test": "Kinetic glucose determination with glucose-dehydrogenase, Example 4 (1.8 U enzyme)", "assay_type": "biochemical", "excerpt": "as §1\n0.12 mole phosphate buffer pH = 7.6\n40 millimoles sulfosalicylic acid\n0.86 millimole - 2.59 millimoles glucose\n1.8 U glucose-dehydrogenase"}, "[5]": {"target": "uricase (prepared from swine liver) (Sus scrofa, UniProt P16164)", "description": "Recording is started 20 seconds after initiation of the reaction: paper speed 2 cm/min, spread 20 cm for E=0-1. With an angle measuring means, the angle α formed with the time axis is measured at the beginning of each recording. The reciprocals of tan α are plotted as ordinates against the corresponding reciprocal uric acid concentrations (Lineweaver-Burk diagram). The calibration straight line is drawn through the points obtained with and without the addition of potassium thiocyanate.\nFor the determination of the apparent Michaelis constant, the reciprocals of the tangent α are plotted as ordinates, and the reciprocal molar substrate concentrations in the test mixture as abscissae. The apparent Michaelis constant is found as a negative reciprocal of the abscissae intersections of the straight lines of regression (insertion of suitable small values for 1/cS followed by graphic evaluation)."}, "GlucDH": {"target": "GlucDH (Priestia megaterium, UniProt P07999)", "sequence (P07999 whole entry)": "as above", "test": "Kinetic glucose determination with GlucDH, average inhibition (Table 3)", "assay_type": "biochemical", "excerpt": "(§2) The exclusion of the interference of foreign inhibitors that can be achieved by the invention is illustrated by the measurements obtained for two different enzymes and two different inhibitors each, which are listed in the following two tables."}, "glucose dehydrogenase [6]": {"target": "T2, glucose dehydrogenase", "test": "Kinetic glucose determination with glucose-dehydrogenase, Example 5 (95 mU enzyme)", "assay_type": "biochemical", "excerpt": "as §1\n90 mmoles phosphate buffer pH = 7.6\n40 mmoles sulfosalicylic acid\n95 mU glucose dehydrogenase"}, "uricase [7]": {"target": "T1, uricase", "test": "Kinetic uric acid determination with uricase, average inhibition (Table 4)", "assay_type": "biochemical", "excerpt": "as §2"}, "[8]": {"conditions": "0.31 mole KSCN, glucose [S] 0.86 mmoles"}, "[9]": {"conditions": "0.31 mole KSCN, glucose [S] 1.29 mmoles"}, "[10]": {"conditions": "0.31 mole KSCN, glucose [S] 1.72 mmoles"}, "[11]": {"conditions": "0.31 mole KSCN, glucose [S] 2.59 mmoles"}, "[12]": {"conditions": "38.5 mmoles KSCN, glucose [S] 0.86 mmoles"}, "[13]": {"conditions": "38.5 mmoles KSCN, glucose [S] 1.29 mmoles"}, "[14]": {"conditions": "38.5 mmoles KSCN, glucose [S] 1.72 mmoles"}, "[15]": {"conditions": "38.5 mmoles KSCN, glucose [S] 2.59 mmoles"}, "[16]": {"conditions": "38.5 mmoles KSCN, glucose [S] 3.45 mmoles"}, "[17]": {"conditions": "1.4 nmoles phloretin, glucose [S] 0.86 mmoles"}, "[18]": {"conditions": "1.4 nmoles phloretin, glucose [S] 1.29 mmoles"}, "[19]": {"conditions": "1.4 nmoles phloretin, glucose [S] 1.72 mmoles"}, "[20]": {"conditions": "1.4 nmoles phloretin, glucose [S] 2.59 mmoles"}, "[21]": {"conditions": "14 nmoles phloretin, glucose [S] 0.86 mmoles"}, "[22]": {"conditions": "14 nmoles phloretin, glucose [S] 1.29 mmoles"}, "[23]": {"conditions": "14 nmoles phloretin, glucose [S] 1.72 mmoles"}, "[24]": {"conditions": "14 nmoles phloretin, glucose [S] 2.59 mmoles"}, "[25]": {"conditions": "14 nmoles phloretin, glucose [S] 3.45 mmoles"}, "[26]": {"conditions": "0.02 mmole xanthine, [S] 7.6 μmole"}, "[27]": {"conditions": "0.02 mmole xanthine, [S] 38 μmole"}, "[28]": {"conditions": "0.02 mmole xanthine, [S] 114 μmole"}}, "data": [{"smiles": "O=c1[nH]c(=O)c2[nH]c(=O)[nH]c2[nH]1", "note": "[uric acid]", "values": [{"measurement": "Km", "setting": "[1]", "value": 17, "unit": "µM"}]}, {"smiles": "N#CS", "note": "[KSCN, Potassium thiocyanate]", "values": [{"measurement": "% inh.", "setting": "uricase [2]; 0.5 mole KSCN, [S] 7.6 μmole", "value": 86, "unit": "%"}, {"measurement": "ΔE/min", "setting": "uricase [2]; 0.5 mole KSCN, [S] 7.6 μmole", "value": 3.3}, {"measurement": "% inh.", "setting": "uricase [2]; 0.5 mole KSCN, [S] 38 μmole", "value": 81, "unit": "%"}, {"measurement": "ΔE/min", "setting": "uricase [2]; 0.5 mole KSCN, [S] 38 μmole", "value": 16.3}, {"measurement": "% inh.", "setting": "uricase [2]; 0.5 mole KSCN, [S] 114 μmole", "value": 73, "unit": "%"}, {"measurement": "ΔE/min", "setting": "uricase [2]; 0.5 mole KSCN, [S] 114 μmole", "value": 46}, {"measurement": "type of inhibitor", "setting": "glucose dehydrogenase [3]", "value": "competitive type of inhibitor"}, {"measurement": "% inh.", "setting": "glucose dehydrogenase [4]; [8]", "value": 85.5, "unit": "%"}, {"measurement": "ΔE/min", "setting": "glucose dehydrogenase [4]; [8]", "value": 4.5}, {"measurement": "% inh.", "setting": "glucose dehydrogenase [4]; [9]", "value": 80.3, "unit": "%"}, {"measurement": "ΔE/min", "setting": "glucose dehydrogenase [4]; [9]", "value": 8.0}, {"measurement": "% inh.", "setting": "glucose dehydrogenase [4]; [10]", "value": 80.6, "unit": "%"}, {"measurement": "ΔE/min", "setting": "glucose dehydrogenase [4]; [10]", "value": 10.5}, {"measurement": "% inh.", "setting": "glucose dehydrogenase [4]; [11]", "value": 77.5, "unit": "%"}, {"measurement": "ΔE/min", "setting": "glucose dehydrogenase [4]; [11]", "value": 17}, {"measurement": "apparent Michaelis constant", "setting": "[5]; 687 mmoles per liter of test solution, uric acid as substrate, 25°C", "value": 1, "unit": "mmol/L"}, {"measurement": "type of inhibitor", "setting": "[5]; Lineweaver-Burk plot, same ordinate intersection", "value": "competitive inhibitor"}, {"measurement": "Average inhibition in %", "setting": "GlucDH; KSCN 38.5 millimoles", "value": 17, "unit": "%"}, {"measurement": "Average inhibition in %", "setting": "GlucDH; KSCN 310 millimoles", "value": 78, "unit": "%"}, {"measurement": "% inh.", "setting": "glucose dehydrogenase [6]; [12]", "value": 17, "unit": "%"}, {"measurement": "ΔE/min", "setting": "glucose dehydrogenase [6]; [12]", "value": 28.0}, {"measurement": "% inh.", "setting": "glucose dehydrogenase [6]; [13]", "value": 18.8, "unit": "%"}, {"measurement": "ΔE/min", "setting": "glucose dehydrogenase [6]; [13]", "value": 40.3}, {"measurement": "% inh.", "setting": "glucose dehydrogenase [6]; [14]", "value": 21.69, "unit": "%"}, {"measurement": "ΔE/min", "setting": "glucose dehydrogenase [6]; [14]", "value": 49.7}, {"measurement": "% inh.", "setting": "glucose dehydrogenase [6]; [15]", "value": 8, "unit": "%"}, {"measurement": "ΔE/min", "setting": "glucose dehydrogenase [6]; [15]", "value": 72.3}, {"measurement": "% inh.", "setting": "glucose dehydrogenase [6]; [16]", "value": 17, "unit": "%"}, {"measurement": "ΔE/min", "setting": "glucose dehydrogenase [6]; [16]", "value": 90}, {"measurement": "Average inhibition in %", "setting": "uricase [7]; KSCN 10 millimoles", "value": 17, "unit": "%"}, {"measurement": "Average inhibition in %", "setting": "uricase [7]; KSCN 40 millimoles", "value": 41, "unit": "%"}, {"measurement": "Average inhibition in %", "setting": "uricase [7]; KSCN 500 millimoles", "value": 82, "unit": "%"}]}, {"smiles": "O=C(CCc1ccc(O)cc1)c1c(O)cc(O)cc1O", "note": "[Phloretin, phloretin]", "values": [{"measurement": "% inh.", "setting": "glucose dehydrogenase [4]; [17]", "value": 22.8, "unit": "%"}, {"measurement": "ΔE/min", "setting": "glucose dehydrogenase [4]; [17]", "value": 24.0}, {"measurement": "% inh.", "setting": "glucose dehydrogenase [4]; [18]", "value": 26.0, "unit": "%"}, {"measurement": "ΔE/min", "setting": "glucose dehydrogenase [4]; [18]", "value": 30.0}, {"measurement": "% inh.", "setting": "glucose dehydrogenase [4]; [19]", "value": 15.8, "unit": "%"}, {"measurement": "ΔE/min", "setting": "glucose dehydrogenase [4]; [19]", "value": 45.5}, {"measurement": "% inh.", "setting": "glucose dehydrogenase [4]; [20]", "value": 17.1, "unit": "%"}, {"measurement": "ΔE/min", "setting": "glucose dehydrogenase [4]; [20]", "value": 62.5}, {"measurement": "Average inhibition in %", "setting": "GlucDH; Phloretin 1.4 micromoles", "value": 20, "unit": "%"}, {"measurement": "Average inhibition in %", "setting": "GlucDH; Phloretin 14 micromoles", "value": 76, "unit": "%"}, {"measurement": "% inh.", "setting": "glucose dehydrogenase [6]; [21]", "value": 74, "unit": "%"}, {"measurement": "ΔE/min", "setting": "glucose dehydrogenase [6]; [21]", "value": 8.7}, {"measurement": "% inh.", "setting": "glucose dehydrogenase [6]; [22]", "value": 77, "unit": "%"}, {"measurement": "ΔE/min", "setting": "glucose dehydrogenase [6]; [22]", "value": 11.3}, {"measurement": "% inh.", "setting": "glucose dehydrogenase [6]; [23]", "value": 78, "unit": "%"}, {"measurement": "ΔE/min", "setting": "glucose dehydrogenase [6]; [23]", "value": 14.0}, {"measurement": "% inh.", "setting": "glucose dehydrogenase [6]; [24]", "value": 76, "unit": "%"}, {"measurement": "ΔE/min", "setting": "glucose dehydrogenase [6]; [24]", "value": 20.3}, {"measurement": "% inh.", "setting": "glucose dehydrogenase [6]; [25]", "value": 75, "unit": "%"}, {"measurement": "ΔE/min", "setting": "glucose dehydrogenase [6]; [25]", "value": 26.7}]}, {"smiles": "O=c1[nH]c(=O)c2[nH]cnc2[nH]1", "note": "[Xanthine, xanthine]", "values": [{"measurement": "% inh.", "setting": "uricase [2]; [26]", "value": 49, "unit": "%"}, {"measurement": "ΔE/min", "setting": "uricase [2]; [26]", "value": 14}, {"measurement": "% inh.", "setting": "uricase [2]; [27]", "value": 25, "unit": "%"}, {"measurement": "ΔE/min", "setting": "uricase [2]; [27]", "value": 66}, {"measurement": "% inh.", "setting": "uricase [2]; [28]", "value": 26, "unit": "%"}, {"measurement": "ΔE/min", "setting": "uricase [2]; [28]", "value": 127}, {"measurement": "Average inhibition in %", "setting": "uricase [7]; Xanthine 20 micromoles", "value": 34, "unit": "%"}, {"measurement": "Average inhibition in %", "setting": "uricase [7]; Xanthine 40 micromoles", "value": 60, "unit": "%"}, {"measurement": "Average inhibition in %", "setting": "uricase [7]; Xanthine 80 micromoles", "value": 76, "unit": "%"}]}]}
